Values of other authors in patent US20190151262A1, “USE OF N-ACETYLCYSTEINE AMIDE FOR DECREASING INTRACRANIAL PRESSURE” (priority 2013, published 2019).

Test system: intra-cranial pressure
Settings: previously tried anti-oxidant; Thomale et al. Intensive Care Med. 32:149-155 (2006)

CC(=O)N[C@@H](CS)C(=O)O [NAC, n-acetylcysteine]
decrease of intra-cranial pressure: no success
